In ChEMBL document CHEMBL3588842, “Discovery of Selective Small-Molecule Inhibitors for the β-Catenin/T-Cell Factor Protein-Protein Interaction through the Optimization of the Acyl Hydrazone Moiety” (J Med Chem, 2015):
Calls of active or inactive are those of the source. The calls are words filed in the database; no cut-off is given here.

Assays:
[1] = tested on: HCT-116; experiment: Cytotoxicity against human HCT116 cells assessed as inhibition of cell growth after 72 hrs by MTS assay
[2] = tested on: SW480; experiment: Cytotoxicity against human SW480 cells assessed as inhibition of cell growth after 72 hrs by MTS assay
[3] = tested on: HEK293; experiment: Inhibition of interaction of beta-catenin (unknown origin) transfected in Wnt-activated HEK293 cells/Tcf4 assessed as decrease in transactivation of canonical Wnt signaling by TOPflash luciferase reporter assay; details: Homo sapiens
[4] = Inhibition of interaction of beta-catenin (unknown origin) transfected in Wnt-activated HEK293 cells/Tcf4 assessed as decrease in transactivation of canonical Wnt signaling by TOPflash luciferase reporter assay; details: Homo sapiens
[5] = tested on: HT-29; experiment: cells; details: Homo sapiens, HT-29, 72 h
[6] = Inhibition of beta-catenin/Tcf4 interaction in human SW480 cells assessed as decrease in transactivation of canonical Wnt signaling by TOPflash luciferase reporter assay
[7] = tested on: HCT-116; experiment: cells; details: Homo sapiens, HCT-116, 72 h
[8] = tested on: SW480; experiment: cells; details: Homo sapiens, SW480, 72 h
[9] = tested on: beta-catenin R469A mutant/Tcf4 (human); experiment: Inhibition of human beta-catenin R469A mutant interaction with Tcf4 by fluorescence polarization competitive inhibition assay
[10] = target: T1, Catenin beta-1 (Homo sapiens, UniProt P35222); experiment: Inhibition of human wild-type beta-catenin (residues 138-686)/C-terminally fluorescein labeled human wild-type Tcf4 (residues 7-51) interaction after […] by FP competitive inhibition assay
T1 sequence (P35222 whole entry): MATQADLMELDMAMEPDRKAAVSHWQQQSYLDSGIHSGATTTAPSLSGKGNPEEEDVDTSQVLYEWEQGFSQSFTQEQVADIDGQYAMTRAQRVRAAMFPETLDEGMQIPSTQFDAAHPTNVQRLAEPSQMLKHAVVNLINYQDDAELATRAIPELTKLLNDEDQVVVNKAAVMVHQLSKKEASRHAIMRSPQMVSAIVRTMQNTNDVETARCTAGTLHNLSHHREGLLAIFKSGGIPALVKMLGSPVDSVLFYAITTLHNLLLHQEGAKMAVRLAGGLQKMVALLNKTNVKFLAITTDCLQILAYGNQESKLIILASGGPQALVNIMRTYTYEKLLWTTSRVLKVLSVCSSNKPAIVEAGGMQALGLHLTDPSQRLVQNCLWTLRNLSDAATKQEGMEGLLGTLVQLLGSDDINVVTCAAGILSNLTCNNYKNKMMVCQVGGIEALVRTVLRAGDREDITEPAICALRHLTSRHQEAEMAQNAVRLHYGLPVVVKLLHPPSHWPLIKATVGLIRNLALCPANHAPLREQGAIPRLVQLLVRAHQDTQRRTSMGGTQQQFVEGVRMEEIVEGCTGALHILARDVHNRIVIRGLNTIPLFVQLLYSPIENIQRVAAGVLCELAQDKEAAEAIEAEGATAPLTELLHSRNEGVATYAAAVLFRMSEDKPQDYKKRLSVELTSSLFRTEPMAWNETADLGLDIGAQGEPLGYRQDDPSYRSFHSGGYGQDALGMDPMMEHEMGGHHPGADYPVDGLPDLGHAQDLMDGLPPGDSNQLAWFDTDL

[11] = target: T1, Catenin beta-1; experiment: Inhibition of human wild-type beta-catenin (residues 138-686)/C-terminally fluorescein-labeled human E-cadherin (residues 819-873) interaction by FP competitive inhibition assay
[12] = target: T1, Catenin beta-1; experiment: Inhibition of human wild-type beta-catenin (residues 138-686)/C-terminally fluorescein-labeled human APC-R3 (residues 1477-1519) interaction by FP competitive inhibition assay
[13] = tested on: SW480; experiment: Effect on HPRT mRNA expression in human SW480 cells after 24 hrs by quantitative real-time PCR analysis; format: functional, cell-based
[14] = tested on: SW480; experiment: Decrease in c-myc mRNA expression in human SW480 cells at 2 uM after 24 hrs by quantitative real-time PCR analysis; format: functional; details: SW480, 24 h
[15] = tested on: SW480; experiment: Effect on beta-catenin degradation in human SW480 cells assessed as beta-catenin protein expression after 24 hrs by western blot analysis; format: functional, cell-based
[16] = tested on: SW480; experiment: Decrease in cyclin D1 mRNA expression in human SW480 cells at 2 uM after 24 hrs by quantitative real-time PCR analysis; format: functional; details: SW480, 24 h
[17] = tested on: SW480; experiment: Decrease in AXIN2 mRNA expression in human SW480 cells at 2 uM after 24 hrs by quantitative real-time PCR analysis; format: functional; details: SW480, 24 h

SMILES | inhibition [1] | inhibition [2] | inhibition [3] | IC50 [4] | IC50 [7] | IC50 [8] | other results
O=C(O)CCCn1c2ccccc2c2nc3nonc3nc21 | inactive | inactive | inactive | – | – | – | –
O=C(O)c1cc(-c2ccc(Oc3ccc(Cl)cc3)cc2)on1 | – | – | – | 39 µM | – | – | –
COC(=O)CCn1c2ccccc2c2nc3nonc3nc21 | inactive | inactive | inactive | – | – | – | –
CCOC(=O)CCCn1c2ccccc2c2nc3nonc3nc21 | inactive | inactive | inactive | – | – | – | –
COc1ccc(/C=C2/SC(=S)N(CCCC(=O)O)C2=O)cc1OC | – | – | – | – | 180 µM | 240 µM | IC50 [5]: 290 µM; IC50 [6]: 4 µM
O=C(O)c1cc2nc(-c3ccc4c(c3)OCO4)c(-c3ccc4c(c3)OCO4)nc2cc1O | – | – | – | > 100 µM | – | – | –
Nc1nonc1NC(=O)Cn1c2ccccc2c2nc3nonc3nc21 | inactive | inactive | inactive | – | – | – | Ki [9]: 42 µM
COc1c(C[C@@H](C)OC(=O)Oc2ccc(O)cc2)c2c3c(C[C@@H](C)OC(=O)c4ccccc4)c(OC)c(=O)c4c(O)cc(OC)c(c5c(OC)cc(O)c(c1=O)c52)c43 [CALPHOSTIN C] | – | – | – | – | – | – | IC50 [10]: 77 µM; IC50 [11]: 38 µM; IC50 [12]: 110 µM
O=C(O)c1ccc2nc(-c3ccc(Cl)cc3)c(-c3ccc(Cl)cc3)nc2c1 | – | – | – | > 100 µM | 22 µM | 38 µM | IC50 [5]: 41 µM
N#CCCn1c2ccccc2c2nc3nonc3nc21 | – | – | – | – | 0.02 µM | 52 µM | –
c1ccc2c(c1)c1nc3nonc3nc1n2CCc1nn[nH]n1 | – | – | – | 26 µM | 31 µM | > 200 µM | Activity [13]: inactive
COc1c(C[C@H](C)O)c2c3c(C[C@H](C)O)c(OC)c(=O)c4c(O)cc5c(c6c(cc(O)c(c1=O)c62)OCO5)c43 | – | – | – | – | 1.2 µM | 5.5 µM | IC50 [5]: 1.8 µM
Nc1nonc1C(=O)N/N=C1/c2ccccc2-c2nc3nonc3nc21 | – | – | – | – | – | – | inhibition at 2 µM [14]: > 50%; Activity [15]: inactive; Activity [13]: inactive; inhibition at 2 µM [16]: > 50%; inhibition at 2 µM [17]: > 50%
